Source: patent US8288416B2, “Substituted piperidinophenyl oxazolidinones” (Wockhardt Ltd., priority 2006, dated 2012)
Structures can show the parent of a compound that is named as a salt. Where two headings read alike, the source gives them in different places. Values belong to the compound of their own block, whether it stands above or below them.

Key:
Aqueous solubility = assay type: physicochemical; details: for solubility: aqueous
[1] = pH 7, aqueous buffer, pH 7, read-out: Aqueous solubility at pH 7

Structure (SMILES): COCC1(OP(=O)(O)O)CCN(c2c(F)cc(N3C[C@H](CNC(C)=O)OC3=O)cc2F)CC1 [Example 3, Phosphoric acid mono-(1-{4-[(S)-5-(acetylamino-methyl)-2-oxo-oxazolidin-3-yl]-2,6-difluorophenyl}-4-methoxymethyl-piperidin-4-yl)ester]
- solubility (Aqueous solubility; pH not stated, read-out: Aqueous solubility): > 200 mg/mL
- melting point: > 140 °C

Structure (SMILES): COCC1(OP(=O)(O)O)CCN(c2c(F)cc(N3C[C@H](CNC(C)=O)OC3=O)cc2F)CC1 [Example 4, Phosphoric acid mono-(1-{4-[(S)-5-(acetylamino-methyl)-2-oxo-oxazolidin-3-yl]-2,6-difluoro-phenyl}-4-methoxymethyl-piperidin-4-yl)ester di sodium salt]
- Aqueous solubility at pH 7 (Aqueous solubility; pH 7, di sodium salt): > 200 mg/ml

Structure (SMILES): COCC1(OP(=O)(O)O)CCN(c2c(F)cc(N3C[C@H](CNC(C)=O)OC3=O)cc2F)CC1 [Example 5, Phosphoric acid mono-(1-{4-[(S)-5-(acetylamino-methyl)-2-oxo-oxazolidin-3-yl]-2,6-difluoro-phenyl}-4-methoxymethyl-piperidin-4-yl)ester di potassium salt]
- Aqueous solubility at pH 7 (Aqueous solubility; pH 7, di potassium salt): > 200 mg/ml

Structure (SMILES): COCC1(OP(=O)(O)O)CCN(c2c(F)cc(N3C[C@H](CNC(C)=O)OC3=O)cc2F)CC1 [Example 6, Phosphoric acid mono-(1-{4-[(S)-5-(acetylamino-methyl)-2-oxo-oxazolidin-3-yl]-2,6-difluoro-phenyl}-4-methoxymethyl-piperidin-4-yl)ester magnesium salt]
- Aqueous solubility at pH 7 (Aqueous solubility; pH 7): ~2 mg/ml

Structure (SMILES): COCC1(OP(=O)([O-])[O-])CCN(c2c(F)cc(N3C[C@H](CNC(C)=O)OC3=O)cc2F)CC1.[Ca+2] [Example 7, Phosphoric acid mono-(1-{4-[(S)-5-(acetylamino-methyl)-2-oxo-oxazolidin-3-yl]-2,6-difluoro-phenyl}-4-methoxymethyl-piperidin-4-yl)ester calcium salt]
- solubility (Aqueous solubility; [1]): ~0.5 mg/mL

- solubility (Aqueous solubility; [1]): > 100 mg/mL
Structure (SMILES): COCC1(OC(=O)CN)CCN(c2c(F)cc(N3C[C@H](CNC(C)=O)OC3=O)cc2F)CC1.Cl [Example 11, 2-Amino-acetic acid 1-{4-[(S)-5-(acetylamino-methyl)-2-oxo-oxazolidin-3-yl]-2,6-difluorophenyl}-4-methoxymethyl-piperidin-4-yl ester hydrochloride salt]

- Aqueous solubility at pH 7 (Aqueous solubility; pH 7): > 100 mg/ml
Structure (SMILES): COCC1(OC(=O)CN)CCN(c2c(F)cc(N3C[C@H](CNC(C)=O)OC3=O)cc2F)CC1.O=C(O)C(F)(F)F [Example 12, 2-Amino-acetic acid 1-{4-[(S)-5-(acetylamino-methyl)-2-oxo-oxazolidin-3-yl]-2,6-difluorophenyl}-4-methoxymethyl-piperidin-4-yl ester triflouroacetic acid salt]

Structure (SMILES): COCC1(C(=O)[C@H](C)NC(=O)OC(C)(C)C)CCN(c2c(F)cc(N3C[C@H](CNC(C)=O)OC3=O)cc2F)CC1 [Example 13, (S)—N-{3-[3,5-difluoro-4-(4-(S)-2-tert-butoxycarbonylamino-propionyl-4-methoxymethyl-piperidine-1-yl)phenyl]-2-oxo-oxazolidin-5-ylmethyl}-acetamide]
- Aqueous solubility at pH 7 (Aqueous solubility; pH 7): > 100 mg/ml

- solubility (Aqueous solubility; [1]): > 100 mg/mL
Structure (SMILES): COCC1(OC(=O)C(C)N)CCN(c2c(F)cc(N3C[C@H](CNC(C)=O)OC3=O)cc2F)CC1.Cl (stereo partly drawn) [Example 14, 2-Amino-propionic acid 1-{4-[(S)-5-(acetylamino-methyl)-2-oxo-oxazolidin-3-yl]-2,6-difluorophenyl}-4-methoxymethyl-piperidin-4-yl ester hydrochloride salt]

- Aqueous solubility at pH 7 (Aqueous solubility; pH 7): > 100 mg/ml
Structure (SMILES): COCC1(OC(=O)C(C)N)CCN(c2c(F)cc(N3C[C@H](CNC(C)=O)OC3=O)cc2F)CC1.O=C(O)C(F)(F)F (stereo partly drawn) [Example 15, 2-Amino-propionic acid 1-{4-[(S)-5-(acetylamino-methyl)-2-oxo-oxazolidin-3-yl]-2,6-difluorophenyl}-4-methoxymethyl-piperidin-4-yl ester triflouroacetic acid salt]

Structure (SMILES): COCC1(C(=O)[C@@H](NC(=O)OCc2ccccc2)C(C)C)CCN(c2c(F)cc(N3C[C@H](CNC(C)=O)OC3=O)cc2F)CC1 [Example 16, (S)—N-{3-[3,5-Difluoro-4-(4-(S)-2-carbobenzyloxyamino-3,3-dimethylpropionyl-4-methoxymethyl-piperidine-1-yl)phenyl]-2-oxo-oxazolidin-5-ylmethyl}-acetamide]
- Aqueous solubility at pH 7 (Aqueous solubility; pH 7): > 100 mg/ml

Structure (SMILES): COCC1(OC(=O)C(N)C(C)C)CCN(c2c(F)cc(N3C[C@H](CNC(C)=O)OC3=O)cc2F)CC1.CS(=O)(=O)O (stereo partly drawn) [Example 17, 2-Amino-3,3-dimethylpropionic acid 1-{4-[(S)-5-(acetylamino-methyl)-2-oxo-oxazolidin-3-yl]-2,6-difluorophenyl}-4-methoxymethyl-piperidin-4-yl ester methane sulfonic acid salt]
- solubility (Aqueous solubility; pH 7, aqueous buffer, read-out: Aqueous solubility at pH 7): > 100 mg/mL
